These results are taken from publication PMC8000448, “Inhibitory Effects of Schisandra Lignans on Cytochrome P450s and Uridine 5′-Diphospho-Glucuronosyl Transferases in Human Liver Microsomes” (Pharmaceutics, 2021).

Where two headings read alike, the source gives them in different places.

As usually defined, the IC50 is the concentration at which inhibition is half-maximal.

Data set [1] concerns the target CYP3A (Homo sapiens, UniProt P08684). The data set is described as follows: CYP3A inhibition in HLMs (midazolam, nifedipine, testosterone).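 As to all read-outs here: pooled HLMs at 0.25 mg/mL in phosphate buffer, inhibitor across 0–50 µM, 10 min reaction at 37 °C after preincubation, probe metabolite quantified by LC-MS/MS, triplicate incubations.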 Conditions: pooled human liver microsomes; for IC50 at 10 min: HLMs. On the technique in general: Liver microsomes are a subcellular fraction often used to study metabolism.
Experimental: (§2) Lignans were first dissolved in methanol. The final organic solvent concentration in the incubation media was ≤1.0% (v/v). The microsomal incubation was conducted using two cocktail sets containing non-interactive substrates: set A containing phenacetin, bupropion, amodiaquine, diclofenac, S-mephenytoin, and dextromethorphan as substrates for CYP1A2, CYP2B6, CYP2C8, CYP2C9, CYP2C19, and CYP2D6, respectively; and set B containing coumarin and chlorzoxazone as substrates for CYP2A6 and CYP2E1, and midazolam, nifedipine, and testosterone as substrates for CYP3A4 (Table 1). These substrates are known to be selective for each P450 isoforms. Incubation mixtures containing potassium phosphate buffer (0.1 M, pH 7.4), pooled HLMs (0.25 mg/mL), P450 probe substrate cocktails, and lignan (0~50 μM) were pre-incubated at 37 °C (5 min). Following pre-incubation, an NADPH generating system (1.3 mM NADP^+, 3.3 mM G6P, 1 unit/mL G6PDH, and 3.3 mM MgCl2) was added to initiate the reaction, and further incubated for 10 min. The reaction was quenched with 50 μL of cold acetonitrile containing internal standard (IS; 7 nM trimipramine). After centrifugation at 14,000 rpm (5 min at 4 °C), aliquots of supernatants were filtered through a 0.2 μm membrane filter and were measured by liquid chromatography-tandem mass spectrometry (LC-MS/MS). All microsomal incubations were performed in triplicate.
Data set [2] has as its target CYP2C9 (Homo sapiens, UniProt P11712). The data set is described as follows: CYP2C9 inhibition in HLMs (diclofenac).
Experimental: as §2
Data set [3] addresses T1, UGT1A3 (Homo sapiens, UniProt P35503).
T1 construct: pooled HLMs (0.25 mg/mL); tissue XenoTech H2630; host or cells: pooled human liver microsomes, mixed gender
T1 sequence (P35503 29-534): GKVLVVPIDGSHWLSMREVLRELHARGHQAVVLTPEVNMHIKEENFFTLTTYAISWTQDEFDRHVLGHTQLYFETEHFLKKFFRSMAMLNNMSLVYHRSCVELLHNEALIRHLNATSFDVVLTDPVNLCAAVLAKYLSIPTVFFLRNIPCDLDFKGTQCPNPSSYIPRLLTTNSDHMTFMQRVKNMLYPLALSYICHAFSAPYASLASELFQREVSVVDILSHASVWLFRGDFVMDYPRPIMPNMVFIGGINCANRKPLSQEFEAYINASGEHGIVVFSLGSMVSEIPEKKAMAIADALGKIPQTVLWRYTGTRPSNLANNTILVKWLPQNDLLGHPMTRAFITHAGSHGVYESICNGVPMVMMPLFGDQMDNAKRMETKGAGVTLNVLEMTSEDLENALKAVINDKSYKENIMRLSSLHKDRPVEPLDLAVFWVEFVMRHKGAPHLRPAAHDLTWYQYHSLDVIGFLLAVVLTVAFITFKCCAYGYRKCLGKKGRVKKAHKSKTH
Kind of data set: UGT1A3 inhibition in HLMs (chenodeoxycholic acid). In kind it is in vitro ADME. Conditions: average in triplicate, read-out: IC50, UGT 1A3. How it is done: (§1) The inhibitory potential of six lignans on six UGT activities was evaluated using the previously developed cocktail method with slight modifications. […] These substrates are known to be selective for each UGT isoforms.

The target of data set [4] is T2, UGT1A6 (Homo sapiens, UniProt P19224).
T2 construct: pooled HLMs (0.25 mg/mL); tissue XenoTech H2630; host or cells: pooled human liver microsomes, mixed gender
T2 sequence (P19224 27-532): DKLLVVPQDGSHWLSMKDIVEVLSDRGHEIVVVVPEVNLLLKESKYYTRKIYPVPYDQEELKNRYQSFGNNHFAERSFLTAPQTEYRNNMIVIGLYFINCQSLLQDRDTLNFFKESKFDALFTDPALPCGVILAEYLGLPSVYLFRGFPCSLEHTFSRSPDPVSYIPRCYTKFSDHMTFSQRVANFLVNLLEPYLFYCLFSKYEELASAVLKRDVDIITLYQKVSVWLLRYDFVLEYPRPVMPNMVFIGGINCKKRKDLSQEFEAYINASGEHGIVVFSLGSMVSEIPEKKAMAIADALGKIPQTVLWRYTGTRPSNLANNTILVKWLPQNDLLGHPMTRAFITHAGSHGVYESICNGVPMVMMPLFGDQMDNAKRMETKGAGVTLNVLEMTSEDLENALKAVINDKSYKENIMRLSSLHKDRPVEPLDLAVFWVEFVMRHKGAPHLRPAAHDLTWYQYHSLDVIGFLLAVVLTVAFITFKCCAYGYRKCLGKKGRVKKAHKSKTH
Kind of data set: UGT1A6 inhibition in HLMs (N-acetylserotonin). It is filed as in vitro ADME. Conditions: average in triplicate, read-out: IC50, UGT 1A6. How it is done:
as §1

The target of data set [5] is T3, CYP2A6 (Homo sapiens, UniProt P11509).
T3 construct: pooled HLMs (0.25 mg/mL); tissue XenoTech H2630; host or cells: pooled human liver microsomes, mixed gender
T3 sequence (P11509 1-494): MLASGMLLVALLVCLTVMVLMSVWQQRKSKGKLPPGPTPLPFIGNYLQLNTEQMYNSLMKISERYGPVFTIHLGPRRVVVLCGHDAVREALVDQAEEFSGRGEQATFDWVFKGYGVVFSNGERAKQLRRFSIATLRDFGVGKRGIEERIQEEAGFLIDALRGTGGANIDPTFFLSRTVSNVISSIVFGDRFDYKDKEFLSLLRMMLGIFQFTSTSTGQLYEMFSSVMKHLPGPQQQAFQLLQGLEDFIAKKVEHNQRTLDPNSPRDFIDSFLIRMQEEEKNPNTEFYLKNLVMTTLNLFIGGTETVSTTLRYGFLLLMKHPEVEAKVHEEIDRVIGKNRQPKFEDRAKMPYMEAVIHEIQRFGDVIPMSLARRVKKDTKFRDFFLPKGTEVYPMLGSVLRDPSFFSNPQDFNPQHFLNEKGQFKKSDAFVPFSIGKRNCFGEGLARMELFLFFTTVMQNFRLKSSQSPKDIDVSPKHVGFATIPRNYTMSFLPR
The data set is described as follows: CYP2A6 inhibition in HLMs (coumarin). In kind it is in vitro ADME. How it is done: Lignans were first dissolved in methanol. […] All microsomal incubations were performed in triplicate.

In data set [6] the target is T4, UGT2B7 (Homo sapiens, UniProt P16662).
T4 construct: pooled HLMs (0.25 mg/mL); tissue XenoTech H2630; host or cells: pooled human liver microsomes, mixed gender
T4 sequence (P16662 24-529): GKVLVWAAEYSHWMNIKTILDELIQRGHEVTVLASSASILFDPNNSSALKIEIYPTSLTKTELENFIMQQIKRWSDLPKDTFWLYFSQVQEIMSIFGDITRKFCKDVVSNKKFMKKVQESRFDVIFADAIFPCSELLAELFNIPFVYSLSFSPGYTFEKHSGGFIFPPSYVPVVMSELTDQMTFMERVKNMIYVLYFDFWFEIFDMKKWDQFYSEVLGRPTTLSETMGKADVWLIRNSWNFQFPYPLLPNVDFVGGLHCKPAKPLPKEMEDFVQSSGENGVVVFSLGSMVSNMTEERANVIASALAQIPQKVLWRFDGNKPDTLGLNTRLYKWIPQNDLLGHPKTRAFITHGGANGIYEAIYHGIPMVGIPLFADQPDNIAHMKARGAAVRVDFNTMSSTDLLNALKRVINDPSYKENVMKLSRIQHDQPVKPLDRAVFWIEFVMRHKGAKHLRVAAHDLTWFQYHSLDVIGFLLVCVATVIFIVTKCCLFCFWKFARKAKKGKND
Kind of data set: UGT2B7 inhibition in HLMs (naloxone). As to conditions: average in triplicate, read-out: IC50, UGT 2B6 (so in the source). It is filed as in vitro ADME. How it is done: as §1

Setting [7] is: pH 7.4, IC50, CYP3A activity (across probe substrates), reversible inhibition, probe substrate not singled out.
Where [8] appears, read: pH 7.4, probe midazolam (cocktail set B), IC50 RI, CYP3A (midazolam), midazolam, reversible inhibition.
Setting [9] is: pH 7.4, probe midazolam (cocktail set B), IC50 TDI, CYP3A (midazolam), midazolam, 30 min pre-incubation with NADPH generating system.
[10] abbreviates: pH 7.4, probe nifedipine (cocktail set B), IC50 RI, CYP3A (nifedipine), nifedipine, reversible inhibition.
[11] abbreviates: pH 7.4, probe nifedipine (cocktail set B), IC50 TDI, CYP3A (nifedipine), nifedipine, 30 min pre-incubation with NADPH generating system.
[12] abbreviates: pH 7.4, probe testosterone (cocktail set B), IC50 RI, CYP3A (testosterone), testosterone, reversible inhibition.
Setting [13] is: pH 7.4, probe testosterone (cocktail set B), IC50 TDI, CYP3A (testosterone), testosterone, 30 min pre-incubation with NADPH generating system.
[14] abbreviates: IC50 TDI, 30 min pre-incubation with NADPH generating system.
[15] abbreviates: 30 min pre-incubation with NADPH generating system, read-out: IC50 TDI, CYP2A6.
The mark [16] stands for this setting: reversible inhibition, read-out: IC50 RI, CYP2A6.

CYP2C9, sequence (P11712 whole entry): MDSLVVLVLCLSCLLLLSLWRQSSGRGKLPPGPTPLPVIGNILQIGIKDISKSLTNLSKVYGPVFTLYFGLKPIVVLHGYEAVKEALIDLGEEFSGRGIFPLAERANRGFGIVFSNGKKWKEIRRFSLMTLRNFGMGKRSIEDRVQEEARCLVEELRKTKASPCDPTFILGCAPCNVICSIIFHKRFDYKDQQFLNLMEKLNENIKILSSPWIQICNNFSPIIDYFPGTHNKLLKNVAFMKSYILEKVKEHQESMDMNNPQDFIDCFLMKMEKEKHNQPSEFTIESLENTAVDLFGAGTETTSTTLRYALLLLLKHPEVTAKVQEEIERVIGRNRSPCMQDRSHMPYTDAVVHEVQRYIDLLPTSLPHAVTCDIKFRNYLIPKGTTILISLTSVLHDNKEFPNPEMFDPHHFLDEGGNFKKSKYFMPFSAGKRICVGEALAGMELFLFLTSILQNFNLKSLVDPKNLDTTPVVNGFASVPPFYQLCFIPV
CYP3A, sequence (P08684 2-503): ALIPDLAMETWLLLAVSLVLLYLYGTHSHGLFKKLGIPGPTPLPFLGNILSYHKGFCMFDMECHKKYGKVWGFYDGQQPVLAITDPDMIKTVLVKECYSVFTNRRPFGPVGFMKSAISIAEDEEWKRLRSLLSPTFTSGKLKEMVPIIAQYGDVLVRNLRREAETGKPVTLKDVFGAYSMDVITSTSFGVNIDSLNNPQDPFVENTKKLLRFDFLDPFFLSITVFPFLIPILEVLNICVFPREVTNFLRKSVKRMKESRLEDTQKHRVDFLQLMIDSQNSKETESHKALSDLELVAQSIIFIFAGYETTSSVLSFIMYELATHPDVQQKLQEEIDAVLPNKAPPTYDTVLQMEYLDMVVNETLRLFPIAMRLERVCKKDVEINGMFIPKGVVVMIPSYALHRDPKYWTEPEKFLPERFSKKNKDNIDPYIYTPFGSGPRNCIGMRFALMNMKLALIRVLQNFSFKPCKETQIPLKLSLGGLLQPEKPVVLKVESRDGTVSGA

Take `COc1cc2c(c(OC)c1OC)-c1c(cc3c(c1OC)OCO3)C[C@H](C)[C@](C)(O)[C@H]2OC(=O)c1ccccc1` [Gomisin C, gomisin C]: the IC50 at 10 min in data set [1] (setting [7]) was 0.19 to 0.3 µM; in data set [1] (setting [8]), 0.3 µM; in data set [1] (setting [9]), 0.1 µM; in data set [1] (setting [10]), 0.26 µM; in data set [1] (setting [11]), 0.09 µM; in data set [1] (setting [12]), 0.19 to 0.28 µM. The compound also gave an IC50 at 10 min in data set [1] (setting [13]) of 0.09 µM. In addition, the IC50 in data set [2] (IC50 RI, reversible inhibition) was over 50 µM; in data set [2] (setting [14]) it was over 50 µM; in data set [3], 15 µM; in data set [4] it was over 50 µM; in data set [5] (setting [15]) it was over 50 µM; in data set [5] (setting [16]), over 50 µM. Besides, the IC50 in data set [6] was over 50 µM.

For the compound `COc1cc2c(c(OC)c1OC)-c1c(cc3c(c1OC)OCO3)C[C@H](C)[C@H](C)C2` [Gomisin N, gomisin N], the IC50 at 10 min in data set [1] (setting [7]) was 1.3 to 4.5 µM; in data set [1] (setting [8]), 4.5 µM; in data set [1] (setting [9]) it was 1.7 µM; in data set [1] (setting [10]), 1.4 µM; in data set [1] (setting [11]) it was 0.61 µM; in data set [1] (setting [12]), 1.3 µM. For the same compound, in data set [1] (setting [13]), half-maximal inhibition (IC50 at 10 min) was put at 0.55 µM. The IC50 shift at 10 min in data set [1] (pH 7.4, probe midazolam (cocktail set B)) is 2.7; in data set [1] (pH 7.4, probe nifedipine (cocktail set B)), 2.4; in data set [1] (pH 7.4, probe testosterone (cocktail set B)), 2.4. The IC50 in data set [2] (IC50 RI, reversible inhibition) is 36.2 µM; in data set [2] (setting [14]) it was 10.9 µM; in data set [3], 26.9 µM; in data set [4], over 50 µM; in data set [5] (setting [15]), over 50 µM; in data set [5] (setting [16]), 38.2 µM. Further, in data set [6], the concentration for half-maximal inhibition (IC50) is over 50 µM.

Take `COc1cc2c(c(OC)c1OC)-c1c(cc(OC)c(OC)c1OC)C[C@](C)(O)[C@@H](C)C2` [Schisandrin, schisandrin]: the IC50 at 10 min was at most 16 µM in data set [1] (setting [7]); 10.5 µM in data set [1] (setting [8]); 35 µM in data set [1] (setting [9]); 16 µM in data set [1] (setting [10]); 43.3 µM in data set [1] (setting [11]); 5.8 µM in data set [1] (setting [12]). The same compound returned an IC50 at 10 min in data set [1] (setting [13]) of 20.6 µM. Moreover, the IC50 in data set [2] (IC50 RI, reversible inhibition) was 43 µM; in data set [2] (setting [14]) it was over 50 µM; in data set [3], over 50 µM; in data set [4] it was over 50 µM; in data set [5] (setting [15]), over 50 µM; in data set [5] (setting [16]) it was 40.9 µM. Further, the IC50 in data set [6] was over 50 µM.

`COc1c2c(cc3c1-c1c(cc4c(c1OC)OCO4)C[C@H](C)[C@H](C)C3)OCO2` [Wuweizisu C, wuweizisu C]: the IC50 at 10 min in data set [1] (setting [8]) was 25.9 µM; in data set [1] (setting [9]) it was 2.5 µM; in data set [1] (setting [10]) it was 5.6 µM; in data set [1] (setting [12]), 3.6 µM. Besides, the IC50 in data set [2] (IC50 RI, reversible inhibition) was 8.9 µM; in data set [2] (setting [14]) it was 3.6 µM; in data set [3], over 50 µM; in data set [4], over 50 µM; in data set [5] (setting [15]), over 50 µM; in data set [5] (setting [16]), over 50 µM. In addition, in data set [6], the IC50 is over 50 µM.
